Results reported in patent US11878970B2, “Allosteric chromenone inhibitors of phosphoinositide 3-kinase (PI3K) for the treatment of disease” (Petra Pharma Corporation, priority 2021, dated 2024).

Columns and labels:
[1] = target: T1, PI3K-α (PIK3CA) H1047R mutant, p110α/p85α complex (Homo sapiens, UniProt P42336, H1047R); experiment: PI3K-alpha kinase (PIK3CA) biochemical activity, ADP-Glo, H1047R mutant
T1 construct: Recombinant, catalytically active human full length PIK3KA Wild-type and H1047R mutant; 6×His (N); purchased EMD Millipore Sigma 14-792M
Summary of the method: (§1)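 ADP formation measured by ADP-Glo luminescence after reaction at 27 °C to about 10% ATP turnover, using 20 uM ATP, 50 uM PIP2diC8 or soy PI lipid, HEPES pH 7.4 with MgCl2. Enzyme (1-5 nM WT or H1047R p110α/p85α) and compound preincubated 1 h first; 10-point 1:3 curves fitted four-parameter for IC50.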

[2] = target: PI3K-α (PIK3CA) in MDA-MB-453 cells (Homo sapiens, UniProt P42336); experiment: PI3K-alpha kinase (PIK3CA) in vitro cell based assay, MDA-MB-453 cells, SureFire Ultra AlphaLisa; conditions: read-out: PI3K-α (PIK3CA) in vitro cell based assay IC50
Protocol: PI3K-Alpha Kinase (PIK3CA) Activity In Vitro Cell Based Assay and Determining IC50 Values for Inhibitors
The MDA-MB-453 (ATCC-HTB-131) cell line was obtained from the American Type Culture Collection (Manassas, VA). Cells were maintained in Dulbecco's Modified Eagle Media (DMEM, Gibco 11965-092) supplemented with 10% Fetal Bovine Serum, heat inactivated (FBS HI, Gibco 10082-147), 1× non-essential amino acids (NEAA, Gibco 11140-050), and 1 mM sodium pyruvate (Gibco 11360-070). Cultures were maintained in a humidified incubator at 37° C. under 5% CO2/95% air.
For compound testing in 0% FBS, MDA-MB-453 cells were seeded at a density of 1.5×10^4 cells per well in white 384-well plates in 20 μl of Minimum Essential Media (MEM) assay media with 1×NEAA, 1 mM sodium pyruvate, and 1 μg/mL human insulin (Sigma I9278). Compounds dissolved in 10 mM stock solutions in DMSO were serially diluted 1:3 in DMSO to generate a 10-point dilution series and plated using an acoustic liquid handler system (Echo 550 Series Liquid Handler, Labcyte). A 5× intermediate compound dilution plate in MEM with 1×NEAA and 1 mM sodium pyruvate (150 μM starting compound concentration in 1.5% DMSO) was then prepared. Five μl of the intermediate serially diluted compounds were added to the cell plate to final concentrations ranging from […] in 0.3% DMSO. 0.3% DMSO alone was used to establish the maximum (MAX) signal and GDC-0032 at a final concentration of 1 μM was used as a reference compound for the minimum (MIN) signal. After 3 hours treatment, the medium was removed, and the cells lysed in 10 μL of 1× SureFire Lysis buffer with shaking for 10 minutes at room temperature. The Acceptor Mix (Reaction Buffer 1+Reaction Buffer 2+Activation Buffer+SureFire Ultra Acceptor Beads) was prepared by diluting Activation buffer 25-fold in combined Reaction Buffer 1 and Reaction Buffer 2. The Acceptor beads were diluted 50-fold in the combined Reaction Buffers. Five μL of Acceptor Mix was added to each well, the plate was sealed and covered with foil and incubated for 1 hour at room temperature. The Donor Mix (dilution buffer+SureFire Ultra Donor Beads) was prepared by diluting Donor Beads 50-fold in dilution buffer. Five μL of the Donor Mix was added to each well and the plate sealed and covered with foil and incubated for 1 hour at room temperature in the dark. The plates were read on a Neo2 plate reader instrument from Biotek using standard AlphaLisa settings. Compounds were tested in duplicate and the average % inhibition at each compound concentration was used to generate a single dose response curve. The data were processed using the Genedata-Screener tool. Relative IC50 values were determined using luminescence units by calculating percent inhibition with respect to the in-plate “MIN” (GDC-0032 reference control) and “MAX” (DMSO) controls. The data was analyzed using a 4-parameter nonlinear logistic equation (four-parameter logistic concentration-response curve): Y=bottom+[(top−bottom)/1+(X/IC50)slope] where Y=% inhibition, X=concentration of inhibitor, bottom=minimum value of y attained by curve-fit, top=maximum value of y attained by curve-fit and slope=steepness of curve at the IC50. % Inhibition=[(signal at X−median Min)/(median Max−median Min)]×100 IC50: concentration of compound that reduces a given response (ligand binding, enzyme response) by 50%. Relative IC50: concentration giving half the compound's maximum response.

[3] = target: T2, PI3K-α (PIK3CA) wild-type (WT), p110α/p85α complex (Homo sapiens, UniProt P42336); experiment: PI3K-alpha kinase (PIK3CA) biochemical activity, ADP-Glo, wild-type
T2 construct: Recombinant, catalytically active human full length PIK3KA Wild-type and H1047R mutant; 6×His (N); purchased EMD Millipore Sigma 14-602M
Summary of the method: as §1

[4] = PIP2diC8 lipid substrate (footnote 1)

T1 sequence (P42336 whole entry H1047R): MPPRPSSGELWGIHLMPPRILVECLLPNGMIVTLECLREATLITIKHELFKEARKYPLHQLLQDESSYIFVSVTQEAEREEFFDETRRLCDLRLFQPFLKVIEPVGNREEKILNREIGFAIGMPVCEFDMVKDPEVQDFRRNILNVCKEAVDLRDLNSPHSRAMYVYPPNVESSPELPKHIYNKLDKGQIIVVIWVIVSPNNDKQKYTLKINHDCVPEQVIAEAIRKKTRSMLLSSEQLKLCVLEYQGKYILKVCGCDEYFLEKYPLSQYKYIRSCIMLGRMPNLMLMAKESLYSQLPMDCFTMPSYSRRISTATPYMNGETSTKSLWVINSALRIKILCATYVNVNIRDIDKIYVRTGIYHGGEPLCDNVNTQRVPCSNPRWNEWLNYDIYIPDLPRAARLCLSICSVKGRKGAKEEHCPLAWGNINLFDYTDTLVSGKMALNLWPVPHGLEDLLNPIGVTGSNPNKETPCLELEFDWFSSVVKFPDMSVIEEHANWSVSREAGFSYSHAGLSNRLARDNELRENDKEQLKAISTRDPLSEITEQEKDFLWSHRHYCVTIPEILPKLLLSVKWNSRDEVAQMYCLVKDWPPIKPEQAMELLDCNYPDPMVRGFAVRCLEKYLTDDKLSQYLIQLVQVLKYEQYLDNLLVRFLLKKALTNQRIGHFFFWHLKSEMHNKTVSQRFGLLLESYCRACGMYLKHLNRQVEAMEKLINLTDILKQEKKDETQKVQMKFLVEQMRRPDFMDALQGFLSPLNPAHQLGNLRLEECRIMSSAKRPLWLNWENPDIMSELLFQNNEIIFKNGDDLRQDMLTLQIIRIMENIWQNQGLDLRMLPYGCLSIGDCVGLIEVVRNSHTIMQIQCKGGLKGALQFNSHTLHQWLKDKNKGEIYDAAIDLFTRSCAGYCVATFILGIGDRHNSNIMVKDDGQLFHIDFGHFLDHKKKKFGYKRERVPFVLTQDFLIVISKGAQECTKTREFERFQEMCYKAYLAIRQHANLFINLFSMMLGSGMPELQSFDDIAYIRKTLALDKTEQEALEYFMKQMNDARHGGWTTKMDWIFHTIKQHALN
T1 sequence (P27986 whole entry partner): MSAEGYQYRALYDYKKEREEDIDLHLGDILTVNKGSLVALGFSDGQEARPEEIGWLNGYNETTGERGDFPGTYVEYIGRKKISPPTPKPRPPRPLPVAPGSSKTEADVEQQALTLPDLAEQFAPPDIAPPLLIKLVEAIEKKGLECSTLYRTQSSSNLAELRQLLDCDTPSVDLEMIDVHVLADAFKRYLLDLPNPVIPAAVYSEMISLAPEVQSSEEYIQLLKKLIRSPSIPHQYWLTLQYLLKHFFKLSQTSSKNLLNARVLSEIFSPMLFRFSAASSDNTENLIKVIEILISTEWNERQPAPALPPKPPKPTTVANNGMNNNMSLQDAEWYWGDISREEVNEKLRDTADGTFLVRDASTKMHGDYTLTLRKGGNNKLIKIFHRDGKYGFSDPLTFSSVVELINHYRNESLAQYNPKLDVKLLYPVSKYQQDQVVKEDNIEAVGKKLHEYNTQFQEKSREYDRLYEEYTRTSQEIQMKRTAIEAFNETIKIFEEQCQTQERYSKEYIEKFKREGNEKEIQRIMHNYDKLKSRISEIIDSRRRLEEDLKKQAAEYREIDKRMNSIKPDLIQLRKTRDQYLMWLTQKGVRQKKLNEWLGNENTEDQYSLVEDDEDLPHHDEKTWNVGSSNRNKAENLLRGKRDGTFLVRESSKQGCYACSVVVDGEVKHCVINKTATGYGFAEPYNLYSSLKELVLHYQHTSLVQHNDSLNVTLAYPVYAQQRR
PI3K-α (PIK3CA) in MDA-MB-453 cells, sequence (P27986 2-724): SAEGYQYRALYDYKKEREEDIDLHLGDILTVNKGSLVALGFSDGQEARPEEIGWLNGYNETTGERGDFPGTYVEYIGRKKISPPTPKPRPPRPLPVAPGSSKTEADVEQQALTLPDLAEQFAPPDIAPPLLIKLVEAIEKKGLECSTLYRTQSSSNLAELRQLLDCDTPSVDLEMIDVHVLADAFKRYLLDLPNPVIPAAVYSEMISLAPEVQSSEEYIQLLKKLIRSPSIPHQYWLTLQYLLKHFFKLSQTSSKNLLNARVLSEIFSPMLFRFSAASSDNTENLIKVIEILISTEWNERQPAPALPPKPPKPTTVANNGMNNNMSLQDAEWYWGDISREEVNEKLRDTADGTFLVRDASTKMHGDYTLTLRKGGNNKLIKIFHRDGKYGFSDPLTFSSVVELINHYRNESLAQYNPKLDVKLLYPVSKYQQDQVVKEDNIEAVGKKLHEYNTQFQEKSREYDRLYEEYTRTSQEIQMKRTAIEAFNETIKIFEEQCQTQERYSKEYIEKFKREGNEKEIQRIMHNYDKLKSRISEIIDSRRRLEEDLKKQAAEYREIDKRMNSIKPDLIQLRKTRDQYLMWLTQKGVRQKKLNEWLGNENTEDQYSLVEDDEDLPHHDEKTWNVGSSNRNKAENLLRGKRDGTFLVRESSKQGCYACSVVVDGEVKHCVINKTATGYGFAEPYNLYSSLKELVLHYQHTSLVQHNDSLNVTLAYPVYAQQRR
PI3K-α (PIK3CA) in MDA-MB-453 cells, sequence (P42336 whole entry): as the sequence (P42336 whole entry H1047R) above, with R1047H counted along it

Row | SMILES | IC50 ([1]; Soy PI lipid substrate) [nM] | IC50 [2] [nM] | IC50 ([3]; Soy PI lipid substrate) [nM] | IC50 [1, 4] [nM] | IC50 [3, 4] [nM]
1 | Cc1cc(C(C)Nc2ccccc2C(=O)O)c2oc(-c3ccc4cn(C)nc4c3)cc(=O)c2c1 (single isomer, unassigned) [Example 1, 2-[1-[6-Methyl-2-(2-methylindazol-6-yl)-4-oxo-chromen-8-yl]ethylamino]benzoic acid] | < 500 | 50 to 100 | 1000 to 5000 | – | –
2 | Cc1cc(C(C)Nc2ccccc2C(=O)O)c2oc(-c3ccn4cc(C)nc4c3)cc(=O)c2c1 (single isomer, unassigned) [Example 3, 2-[1-[6-Methyl-2-(2-methylimidazo[1,2-a]pyridin-7-yl)-4-oxo-chromen-8-yl]ethylamino]benzoic acid] | < 500 | 50 to 100 | 1000 to 5000 | – | –
3 | Cc1cc(C(C)Nc2ccccc2C(=O)O)c2oc(-c3ccc4cc[nH]c4n3)cc(=O)c2c1 (single isomer, unassigned) [Example 4, 2-[1-[6-Methyl-4-oxo-2-(1H-pyrrolo[2,3-b]pyridin-6-yl)chromen-8-yl]ethylamino]benzoic acid] | < 500 | < 50 | 500 to 1000 | – | –
4 | Cc1cc(C(C)Nc2ccccc2C(=O)O)c2oc(-c3ccc4nn(C)cc4c3)cc(=O)c2c1 (single isomer, unassigned) [Example 8, 2-[1-[6-Methyl-2-(2-methylindazol-5-yl)-4-oxo-chromen-8-yl]ethylamino]benzoic acid] | < 500 | < 50 | 500 to 1000 | – | –
5 | Cc1cc(C(C)Nc2ccccc2C(=O)O)c2oc(-c3ccc4oc(C)nc4c3)cc(=O)c2c1 (single isomer, unassigned) [Example 19, 2-[1-[6-Methyl-2-(2-methyl-1,3-benzoxazol-5-yl)-4-oxo-chromen-8-yl]ethylamino]benzoic acid] | < 500 | > 500 | 1000 to 5000 | – | –
6 | Cc1cc(C(C)Nc2ccccc2C(=O)O)c2oc(-c3ccc4c(c3)c(C)nn4C)cc(=O)c2c1 (single isomer, unassigned) [Example 59, 2-[1-[2-(1,3-Dimethylindazol-5-yl)-6-methyl-4-oxo-chromen-8-yl]ethylamino]benzoic acid] | < 500 | < 50 | – | – | –
7 | Cc1cc(C(C)Nc2ccccc2C(=O)O)c2oc(-c3ccc4[nH]c(C(F)(F)F)cc4c3)cc(=O)c2c1 (centres unmarked) [Example 11, 2-[1-[6-Methyl-4-oxo-2-[2-(trifluoromethyl)-1H-indol-5-yl]chromen-8-yl]ethylamino]benzoic acid] | – | – | – | 500 to 1000 | 500 to 1000
8 | Cc1cc(C(C)Nc2ccccc2C(=O)O)c2oc(-c3nn(C)c4ccccc34)cc(=O)c2c1 (centres unmarked) [Example 12, 2-[1-[6-Methyl-2-(1-methylindazol-3-yl)-4-oxo-chromen-8-yl]ethylamino]benzoic acid] | < 500 | – | 5000 to 10000 | – | –
9 | Cc1cc(C(C)Nc2ccccc2C(=O)O)c2oc(-c3ccc4nn(C)cc4c3)cc(=O)c2c1 (centres unmarked) [Example 13, 2-[1-[6-Methyl-2-(2-methylindazol-5-yl)-4-oxo-chromen-8-yl]ethylamino]benzoic acid] | < 500 | – | < 500 | – | –
10 | Cc1cc(C(C)Nc2ccccc2C(=O)O)c2oc(-c3ccc4cc[nH]c4n3)cc(=O)c2c1 (centres unmarked) [Example 14, 2-[1-[6-Methyl-4-oxo-2-(1H-pyrrolo[2,3-b]pyridin-6-yl)chromen-8-yl]ethylamino]benzoic acid] | < 500 | – | 1000 to 5000 | – | –
11 | Cc1cc(C(C)Nc2ccccc2C(=O)O)c2oc(-c3ccc4nccn4n3)cc(=O)c2c1 (centres unmarked) [Example 15, 2-[1-(2-Imidazo[1,2-b]pyridazin-6-yl-6-methyl-4-oxo-chromen-8-yl)ethylamino]benzoic acid] | < 500 | – | 1000 to 5000 | – | –
12 | Cc1cc(C(C)Nc2ccccc2C(=O)O)c2oc(-c3ccc4nc(C)cn4c3)cc(=O)c2c1 (centres unmarked) [Example 16, 2-[1-[6-Methyl-2-(2-methylimidazo[1,2-a]pyridin-6-yl)-4-oxo-chromen-8-yl]ethylamino]benzoic acid] | < 500 | – | 1000 to 5000 | – | –
13 | Cc1cc(C(C)Nc2ccccc2C(=O)O)c2oc(-c3ccc4c(c3)CN(C)C4=O)cc(=O)c2c1 (centres unmarked) [Example 30, 2-[1-[6-Methyl-2-(2-methyl-1-oxo-isoindolin-5-yl)-4-oxo-chromen-8-yl]ethylamino]benzoic acid] | < 500 | – | 1000 to 5000 | – | –
14 | Cc1cc(C(C)Nc2ccc(F)c(F)c2C(=O)O)c2oc(-c3ccc4nc(C)cn4n3)cc(=O)c2c1 (centres unmarked) [Example 94, 2,3-Difluoro-6-[1-[6-methyl-2-(2-methylimidazo[1,2-b]pyridazin-6-yl)-4-oxo-chromen-8-yl]ethylamino]benzoic acid] | 1000 to 5000 | – | > 10000 | – | –
15 | Cc1cc(C(C)Nc2ccc(C)nc2C(=O)O)c2oc(-c3cc4ccccc4[nH]3)cc(=O)c2c1 (centres unmarked) [Example 99, 3-[1-[2-(1H-Indol-2-yl)-6-methyl-4-oxo-chromen-8-yl]ethylamino]-6-methyl-pyridine-2-carboxylic acid] | 1000 to 5000 | – | 1000 to 5000 | – | –
16 | Cc1cc(C(C)Nc2cccc(F)c2C(=O)O)c2oc(-c3ccc4nn(C)cc4c3)cc(=O)c2c1 (centres unmarked) [Example 103, 2-Fluoro-6-[1-[6-methyl-2-(2-methylindazol-5-yl)-4-oxo-chromen-8-yl]ethylamino]benzoic acid] | < 500 | – | 1000 to 5000 | – | –
17 | Cc1cc(C(C)Nc2ccccc2C(=O)O)c2oc(-c3cc4ccncc4o3)cc(=O)c2c1 (centres unmarked) [Example 152, 2-[1-(2-Furo[2,3-c]pyridin-2-yl-6-methyl-4-oxo-chromen-8-yl)ethylamino]benzoic acid] | < 500 | – | 1000 to 5000 | – | –
18 | CC(Nc1ccc(Cl)nc1C(=O)O)c1cc(C(F)(F)F)cc2c(=O)cc(-c3cc(Cl)c4nn(C)cc4c3)oc12 (centres unmarked) [Example 173, 6-Chloro-3-[1-[2-(7-chloro-2-methyl-indazol-5-yl)-4-oxo-6-(trifluoromethyl)chromen-8-yl]ethylamino]pyridine-2-carboxylic acid] | < 500 | – | > 10000 | – | –
19 | Cc1cc(-c2cc(=O)c3cc(C(F)(F)F)cc(C(C)Nc4ccc(Cl)nc4C(=O)O)c3o2)cc2cn(C)nc12 (centres unmarked) [Example 174, 6-Chloro-3-[1-[2-(2,7-dimethylindazol-5-yl)-4-oxo-6-(trifluoromethyl)chromen-8-yl]ethylamino]pyridine-2-carboxylic acid] | < 500 | – | > 10000 | – | –
20 | CC(Nc1cccnc1C(=O)O)c1cc(C(F)(F)F)cc2c(=O)cc(-c3cc4ccccc4[nH]3)oc12 (centres unmarked) [Example 185, 3-[1-[2-(1H-Indol-2-yl)-4-oxo-6-(trifluoromethyl)chromen-8-yl]ethylamino]pyridine-2-carboxylic acid] | > 10000 | – | > 10000 | – | –
21 | Cc1cc([C@@H](C)Nc2ccc(C)nc2C(=O)O)c2oc(-c3ccc4nn(C)cc4c3)c(C)c(=O)c2c1 [Example 200, 3-[[(1R)-1-[3,6-Dimethyl-2-(2-methylindazol-5-yl)-4-oxo-chromen-8-yl]ethyl]amino]-6-methyl-pyridine-2-carboxylic acid] | < 500 | – | 500 to 1000 | – | –
